Results: patent US20260199383A1 (priority 2022, published 2026)
Converted amounts (≈) assume the structure as drawn. Where two headings read alike, the source gives them in different places.

What was measured:
CuFi-1 cells [1] = settings: cited from earlier work; for ASL pH / ΔpH: ref [1]; for ΔpH: vs vehicle control
[2] = cited from earlier work
CuFi-1 cells [3] = assay: Fluorescence microscopic assay of airway surface liquid (ASL) pH in CuFi-1 cells; assay type: cell-based, human
Description: Cell Lines and Growth Conditions. NuLi, CuFi-1, and CuFi-4 cells (Welsh Laboratory, University of Iowa) were grown from cryostock on Thermo Scientific BioLite Cell Culture Treated 75 cm^2 flasks. These flasks were previously coated with 4 mL of 60 μg/mL human placental collagen type IV (Sigma-Aldrich) for a minimum of 1 h at 37° C., rinsed twice with PBS, and then dried before seeding. The cells were cultured with 12 mL Bronchial Epithelial Cell Growth Medium (BEGM) BulletKit (Lonza CC-3170), which includes the basal medium and eight SingleQuots of supplements (bovine pituitary extract (BPE), 2 mL; hydrocortisone, 0.5 mL; hEGF, 0.5 mL; adrenaline, 0.5 mL; transferrin, 0.5 mL; insulin, 0.5 mL; retinoic acid, 0.5 mL; triiodothyronine, 0.5 mL). The gentamicin-AmB aliquot was discarded, and the medium was instead supplemented with 50 μg/mL penicillin-streptomycin (Corning Cellgro), 50 μg/mL gentamicin (Sigma-Aldrich G1397), and 2 μg/mL fluconazole (Sigma-Aldrich). […]
Fluorescence Microscopic Assay for Measurement of Airway Surface Liquid pH. […] Following dissolution in methanol, the AmB concentration in the stock suspension was measured in triplicate by absorbance spectroscopy. Concentrations were calculated from the absorbance at 406 nm (8406=164,000 M^−1 cm^−1) using Beer's law. […]
Small-diameter NuLi and CuFi cells were used for measurement of the ASL pH. […] ASL pH was measured 2 h later. […]

[4] = Solubility of AmB in aqueous media; assay type: physicochemical; settings: 37° C.
[5] = test system: primary cultured airway epithelial cells from individuals with CF; settings: Primary human CF, 2 μM, ref [1], cited from earlier work
CuFi-4 cells = settings: cited from earlier work
[6] = Particle size of wet-milled AmB suspensions (Malvern Mastersizer); assay type: physicochemical

In the case of `C[C@@H]1[C@H](O)[C@@H](C)/C=C/C=C/C=C/C=C/C=C/C=C/C=C/[C@H](O[C@@H]2O[C@H](C)[C@@H](O)[C@H](N)[C@@H]2O)C[C@@H]2O[C@](O)(C[C@@H](O)C[C@@H](O)[C@H](O)CC[C@@H](O)C[C@@H](O)CC(=O)O[C@H]1C)C[C@H](O)[C@H]2C(=O)O` [AmB, amphotericin B], the “ASL pH” value (CuFi-1 cells [1]; CuFi-1, 2 μM) is listed as 7.06, the ΔpH (CuFi-1 cells [1]; CuFi-1, 2 μM) is listed as “+0.18” and the “ASL pH” value (CuFi-1 cells [1]; CuFi-1, 50 μM) is listed as 6.80. The ΔpH (CuFi-1 cells [1]; CuFi-1, 50 μM) was “+0.02”, the “pKa amine group on the mycosamine ring” value [2] was 10.0 and the pKa carboxylate group [2] was 5.7. For the same compound, the “effect on ASL pH” value (CuFi-1 cells [3]; CuFi-1, 2 μM in perfluorocarbon vehicle) was “effective”, the “effect on ASL pH” value (CuFi-1 cells [3]; CuFi-1, 50 μM AmB) was “not at a 50 μM AmB concentration” and the “solubility in Gamble's solution” value [4] was 0.2 µg/mL (≈ 0.216 µM). For the same compound, the “solubility in dilute Alveofact” value [4] was 0.2 µg/mL (≈ 0.216 µM), the solubility in water [4] was 0.5 µg/mL (≈ 0.541 µM) and the “ASL pH” value [5] was 6.97. For the same compound, the ΔpH ([5]; vs vehicle control) was “+0.21”.
For `CC(C)(C)c1cc(C(C)(C)C)c(NC(=O)c2c[nH]c3ccccc3c2=O)cc1O` [Ivacaftor, ivacaftor], the “ASL pH” value (CuFi-1 cells [1]; CuFi-1, 2 μM) is given as 6.82, the ΔpH (CuFi-1 cells [1]; CuFi-1, 2 μM) is given as “+0.07” and the “increase in ASL pH” value (CuFi-1 cells [1]; CuFi-1 cells with homozygous ΔF508 mutations) is given as “minimal increase in ASL pH”. For the same compound, the “ASL pH” value (CuFi-4 cells; CuFi-4, 2 μM, ref [1]) was 6.92, the ΔpH (CuFi-4 cells; CuFi-4, 2 μM, vs vehicle control, ref [1]) was “+0.17” and the “increase in ASL pH” value (CuFi-4 cells; CuFi-4 cells) was “about 0.2 pH units”.
With `C[C@@H]1[C@H](O)[C@@H](C)/C=C/C=C/C=C/C=C/C=C/C=C/C=C/[C@H](O[C@@H]2O[C@H](C)[C@@H](O)[C@H](N)[C@@H]2O)C[C@@H]2O[C@](O)(C[C@@H](O)C[C@@H](O)[C@H](O)CC[C@@H](O)C[C@@H](O)CC(=O)O[C@H]1C)C[C@H](O)[C@H]2C(=O)O` [′202, amphotericin B] the “Primary Particle Size X50 after wet-milling” value (from here on “Primary Particle Size X50”) ([6]; 1 pass (15 kpsi)) was 3.01 μm, the “Primary Particle Size X90 after wet-milling” value (shortened to “Primary Particle Size X90”) ([6]; 1 pass (15 kpsi)) was 6.93 μm and the “Primary Particle Size X50” value ([6]; 3 passes (15, 15, 20 kpsi)) was 2.16 μm. For the same compound, the “Primary Particle Size X90” value ([6]; 3 passes (15, 15, 20 kpsi)) was 5.99 μm.
With `C[C@@H]1[C@H](O)[C@@H](C)/C=C/C=C/C=C/C=C/C=C/C=C/C=C/[C@H](O[C@@H]2O[C@H](C)[C@@H](O)[C@H](N)[C@@H]2O)C[C@@H]2O[C@](O)(C[C@@H](O)C[C@@H](O)[C@H](O)CC[C@@H](O)C[C@@H](O)CC(=O)O[C@H]1C)C[C@H](O)[C@H]2C(=O)O` [′203, amphotericin B] the “Primary Particle Size X50” value ([6]; 1 pass (15 kpsi)) was 1.14 μm, the “Primary Particle Size X90” value ([6]; 1 pass (15 kpsi)) was 2.46 μm and the “Primary Particle Size X50” value ([6]; 3 passes (15, 15, 20 kpsi)) was 1.06 μm. For the same compound, the “Primary Particle Size X90” value ([6]; 3 passes (15, 15, 20 kpsi)) was 2.14 μm.
